Measurements taken from patent publication US9809542B2, “Spiroheterocyclically substituted tetramic acid derivatives” (BAYER INTELLECTUAL PROPERTY GMBH, priority 2010, dated 2017).

Columns and labels:
Type in all cases: in vivo
Boophilus microplus = Boophilus microplus test (BOOPMI injection); conditions: application rate 20 μg/animal; injection into the abdomen; after 7 days
Description: Boophilus microplus Test (BOOPMI Injection)
(§1) Solvent: Dimethyl sulphoxide
To produce a suitable preparation of active compound, 10 mg of active compound are mixed with 0.5 ml of solvent and the concentrate is diluted with solvent to the desired concentration. The solution of active compound is injected into the abdomen (Boophilus microplus) and the animals are transferred into dishes and stored in a climatized room. The activity is monitored for deposition of fertile eggs.
After 7 days, the effect in % is determined. 100% means that none of the ticks has laid any fertile eggs.

[1] = tested on: larva of the mustard beetle (Phaedon cochleariae); experiment: Phaedon test (PHAECO spray treatment); conditions: application rate 500 g/ha, Chinese cabbage leaf discs, after 7 days
Description: Phaedon Test ([…] Spray Treatment) Solvents: 78.0 parts by weight of acetone • • 1.5 parts by weight of dimethylformamide Emulsifier: 0.5 part by weight of alkylaryl polyglycol ether To produce a suitable preparation of active compound, one part by weight of active compound is mixed with the stated amounts of solvents and emulsifier, and the concentrate is diluted with emulsifier-containing water to the desired concentration. Discs of Chinese cabbage (Brassica pekinensis) are sprayed with an active compound preparation of the desired concentration and, after drying, populated with larva of the mustard beetle (Phaedon cochleariae).

[2] = tested on: caterpillars of the armyworm (Spodoptera frugiperda); experiment: Spodoptera frugiperda test (SPODFR spray treatment); conditions: application rate 500 g/ha, maize leaf discs, after 7 days
Description: Spodoptera frugiperda Test (SPODFR Spray Treatment)
Solvents: 78.0 parts by weight of acetone
(§2) • 1.5 parts by weight of dimethylformamide Emulsifier: 0.5 part by weight of alkylaryl polyglycol ether
To produce a suitable preparation of active compound, 1 part by weight of active compound is mixed with the stated amounts of solvents and emulsifier, and the concentrate is diluted with emulsifier-containing water to the desired concentration. Discs of maize leaves (Zea mays) are sprayed with an active compound preparation of the desired concentration and, after drying, populated with caterpillars of the armyworm (Spodoptera frugiperda).
After 7 days, the effect in % is determined. 100% means that all caterpillars have been killed; 0% means that none of the caterpillars have been killed.

Lucilia cuprina larva = experiment: Lucilia cuprina test (LUCICU); conditions: application rate 100 ppm; treated horse meat; after 2 days
Description: Lucilia cuprina Test (LUCICU)
as §1
To produce a suitable preparation of active compound, 10 mg of active compound are mixed with 0.5 ml of dimethyl sulphoxide and the concentrate is diluted with water to the desired concentration. Containers containing horse meat treated with the active compound preparation of the desired concentration are populated with about 20 Lucilia cuprina larva.
After 2 days, the kill in % is determined. 100% means that all larva have been killed; 0% means that none of the larva have been killed.

[3] = tested on: green peach aphid (Myzus persicae); experiment: Myzus persicae test, activity boost by ammonium salts in combination with penetrants; conditions: bell pepper plants; for Kill rate after 6 days: no additive
Description: Example 9: Activity Boost by Ammonium Salts in Combination with Penetrants
(§3) Solvent: 7 parts by weight of dimethylformamide
(§4) Emulsifier: 2 parts by weight of alkylaryl polyglycol ether
(§5) To produce a suitable preparation of active compound, 1 part by weight of active compound is mixed with the stated amounts of solvent and emulsifier, and the concentrate is diluted with water to the desired concentration. For application with ammonium salts and penetrants (rapeseed oil methyl ester 500 EW) these are in each case added in a concentration of 1000 ppm of a.i. to the spray liquor.
Bell pepper plants (Capsicum annuum) heavily infested by the green peach aphid (Myzus persicae) are sprayed to runoff point with the preparation of active compound at the desired concentration. After the desired period of time, the kill in % is determined. 100% means that all animals have been killed; 0% means that none of the animals have been killed.

[4] = tested on: cotton aphid (Aphis gossypii); experiment: Aphis gossypii test; conditions: cotton plants; for Kill rate after 6 days: no additive
Description: as §3, §4
as §5, with “diluted with emulsifier-containing water to” for “diluted with water to”, “oil methyl esters 500 EW)” for “oil methyl ester 500 EW)”
Cotton plants (Gossypium hirsutum) which are heavily infested by the cotton aphid (Aphis gossypii) are sprayed to runoff point with the preparation of active compound at the desired concentration.
After the desired period of time, the kill in % is determined. 100% means that all aphids have been killed; 0% means that none of the aphids have been killed.

[5] = tested on: green peach aphid (Myzus persicae); experiment: Myzus test (MYZUPE spray treatment); conditions: application rate 500 g/ha, Chinese cabbage leaf discs, after 6 days
Description: Myzus Test (MYZUPE Spray Treatment)
Solvents: 78 parts by weight of acetone
as §2
To produce a suitable preparation of active compound, 1 part by weight of active compound is mixed with the stated amounts of solvents and emulsifier, and the concentrate is diluted with emulsifier-containing water to the desired concentration. Discs of Chinese cabbage (Brassica pekinensis) which are infested by all stages of the green peach aphid (Myzus persicae) are sprayed with an active compound preparation of the desired concentration. After 6 days, the effect in % is determined. 100% means that all aphids have been killed; 0% means that none of the aphids have been killed.

SMILES | efficacy (effect in %, 100% = none of the ticks has laid any fertile eggs) (Boophilus microplus) | efficacy (effect in %, beetle larva killed) [1] | efficacy (effect in %, caterpillars killed) [2] | efficacy (kill in %) (Lucilia cuprina larva) | Kill rate after 6 days, +AS (1000 ppm) ([3]; 4 ppm) | Kill rate after 6 days, +RME (1000 ppm) ([3]; 4 ppm) | Kill rate after 6 days, +RME + AS (1000 ppm each) ([3]; 4 ppm) | Kill rate after 6 days ([3]; 4 ppm) | Kill rate after 6 days, +AS (1000 ppm) ([4]; 20 ppm) | Kill rate after 6 days, +RME (1000 ppm) ([4]; 20 ppm) | Kill rate after 6 days, +RME + AS (1000 ppm each) ([4]; 20 ppm) | Kill rate after 6 days ([4]; 20 ppm) | efficacy (effect in %, aphids killed) [5] | also measured
CON1CCC2(CC1)NC(=O)C(c1c(C)ccc(-c3ccc(F)cc3)c1C)=C2O [I-a-1] | 95% | 83% | 83% | 90% | 30% | 55% | 100% | 0% | 40% | 55% | 100% | 0% | 90% | Kill rate after 6 days, +AS (1000 ppm) ([3]; 20 ppm): 90%; Kill rate after 6 days, +RME (1000 ppm) ([3]; 20 ppm): 95%; Kill rate after 6 days, +RME + AS (1000 ppm each) ([3]; 20 ppm): 100%; Kill rate after 6 days ([3]; 20 ppm): 60%
CCON1CCC2(CC1)NC(=O)C(c1c(C)ccc(-c3ccc(F)cc3)c1C)=C2O [I-a-2] | 90% | 100% | 100% | 90% | 20% | 95% | 95% | 0% | 25% | 20% | 90% | 0% | 100% | Kill rate after 6 days, +AS (1000 ppm) ([3]; 0.8 ppm): 0%; Kill rate after 6 days, +RME (1000 ppm) ([3]; 0.8 ppm): 0%; Kill rate after 6 days, +RME + AS (1000 ppm each) ([3]; 0.8 ppm): 40%; Kill rate after 6 days ([3]; 0.8 ppm): 0%; Kill rate after 6 days, +AS (1000 ppm) ([4]; 4 ppm): 0%; Kill rate after 6 days, +RME (1000 ppm) ([4]; 4 ppm): 0%; Kill rate after 6 days, +RME + AS (1000 ppm each) ([4]; 4 ppm): 45%; Kill rate after 6 days ([4]; 4 ppm): 0%
